Structures can show the parent of a compound that is named as a salt.

Chain of Proton Pump (H^+/K^+-ATPase) (P19156 2-1034 limits assumed): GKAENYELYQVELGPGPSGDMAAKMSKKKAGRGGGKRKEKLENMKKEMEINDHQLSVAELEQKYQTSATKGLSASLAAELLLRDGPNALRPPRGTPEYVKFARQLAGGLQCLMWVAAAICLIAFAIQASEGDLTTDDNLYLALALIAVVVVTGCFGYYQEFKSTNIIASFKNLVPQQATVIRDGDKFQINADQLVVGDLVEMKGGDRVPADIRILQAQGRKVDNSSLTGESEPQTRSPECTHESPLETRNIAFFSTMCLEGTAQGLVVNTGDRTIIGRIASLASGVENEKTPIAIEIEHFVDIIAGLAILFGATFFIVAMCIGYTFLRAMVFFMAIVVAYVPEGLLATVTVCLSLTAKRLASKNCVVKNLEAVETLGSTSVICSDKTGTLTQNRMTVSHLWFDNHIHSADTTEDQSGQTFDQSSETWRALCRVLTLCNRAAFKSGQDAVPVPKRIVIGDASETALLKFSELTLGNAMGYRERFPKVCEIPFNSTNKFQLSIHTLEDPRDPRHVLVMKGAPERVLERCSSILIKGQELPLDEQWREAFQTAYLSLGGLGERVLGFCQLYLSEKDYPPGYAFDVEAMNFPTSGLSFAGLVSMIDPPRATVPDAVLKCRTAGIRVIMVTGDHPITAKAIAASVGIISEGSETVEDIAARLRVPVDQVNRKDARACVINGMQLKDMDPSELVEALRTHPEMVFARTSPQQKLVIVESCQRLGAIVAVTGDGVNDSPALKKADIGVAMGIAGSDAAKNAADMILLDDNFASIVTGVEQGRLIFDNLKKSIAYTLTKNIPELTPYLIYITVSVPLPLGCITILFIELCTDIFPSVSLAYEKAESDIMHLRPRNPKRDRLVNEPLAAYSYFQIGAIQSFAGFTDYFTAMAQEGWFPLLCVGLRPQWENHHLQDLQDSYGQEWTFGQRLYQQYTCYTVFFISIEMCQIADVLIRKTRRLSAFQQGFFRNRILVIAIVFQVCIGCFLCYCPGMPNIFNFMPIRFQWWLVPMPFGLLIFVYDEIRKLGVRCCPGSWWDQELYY
Chain of Proton Pump (H^+/K^+-ATPase) (P18434 whole entry partner): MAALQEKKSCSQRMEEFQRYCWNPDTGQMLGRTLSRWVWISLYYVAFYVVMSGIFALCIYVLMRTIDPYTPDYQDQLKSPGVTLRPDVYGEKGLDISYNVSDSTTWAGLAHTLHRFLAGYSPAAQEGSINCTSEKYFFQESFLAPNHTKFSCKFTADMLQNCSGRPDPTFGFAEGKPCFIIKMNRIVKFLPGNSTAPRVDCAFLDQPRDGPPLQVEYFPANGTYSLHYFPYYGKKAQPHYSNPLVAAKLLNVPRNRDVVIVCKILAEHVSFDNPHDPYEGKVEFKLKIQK

This assay addresses Proton Pump (H^+/K^+-ATPase) (Sus scrofa, UniProt P19156). Nature of the assay: Inhibitory effects on proton pump (H^+/K^+-ATPase) activity. It counts as biochemical. The following applies: hog gastric vesicles; K^+ stimulated H^+/K^+-ATPase activity; 30 minutes at 37° C.
As to `CCn1c(C)c(C)c2ccnc(N3CCc4ccccc4C3C3CC3)c21` (stereo not shown) [Example 569, 1-cyclopropyl-2-(1-ethyl-2,3-dimethyl-1H-pyrrolo[2,3-c]pyridin-7-yl)-1,2,3,4-tetrahydroisoquinoline hydrochloride], the half-maximal inhibitory concentration (IC50) (usually the midpoint of a concentration-inhibition curve) stood at 500 nM.

Compound `C=CCn1c(C)c(C)c2ccnc(N3CCc4ccccc4C3)c21` [Example 485, 1-allyl-7-(1,2,3,4-tetrahydroisoquinolin-2-yl)-2,3-dimethyl-1H-pyrrolo[2,3-c]pyridine citrate] gave an IC50 of 6 nM.

In the case of “[1-allyl-7-(3,4-dihydro-1H-isoquinolin-2-yl)-2,3-dimethyl-1H-pyrrolo[2,3-c]pyridin-5-yl]-methylamine hydrochloride [Example 887]”, the IC50 amounted to 9 nM.

For `Cc1ccc(OCc2nccc3c(C)c(C)n(Cc4ccccc4)c23)cc1` [Example 15, 1-benzyl-2,3-dimethyl-7-(p-tolyloxymethyl)-1H-pyrrolo[2,3-c]pyridine hydrochloride], the midpoint of inhibition, the IC50, lay at 140 nM.

Take `COc1cccc(Cn2c(C)c(C)c3ccnc(-c4ccc(C)cc4)c32)c1` [Example 278, 1-(3-methoxybenzyl)-2,3-dimethyl-7-(p-tolyl)-1H-pyrrolo[2,3-c]pyridine hydrochloride]: the IC50 was 390 nM.

Turning to `COc1cccc(Cn2c(C)c(C)c3ccnc(N4CCc5ccccc5C4)c32)c1` [Example 510, 1-(3-methoxybenzyl)-7-(1,2,3,4-tetrahydroisoquinolin-2-yl)-2,3-dimethyl-1H-pyrrolo[2,3-c]pyridine hydrochloride], the concentration for half-maximal inhibition (IC50) is 56 nM.

`COc1cccc(Cn2c(C)c(C)c3ccnc(CN(C)c4ccc(F)cc4)c32)c1` [Example 116, N-(4-fluorophenyl)-N-[1-(3-methoxybenzyl)-2,3-dimethyl-1H-pyrrolo[2,3-c]pyridin-7-ylmethyl]-methylamine hydrochloride] showed a concentration for half-maximal inhibition (IC50) of 48 nM.

`CCC1c2ccccc2CCN1c1nccc2c(C)c(C)n(Cc3ccc(OC)cc3)c12` (stereo not shown) [Example 583, 1-ethyl-2-[1-(4-methoxybenzyl)-2,3-dimethyl-1H-pyrrolo[2,3-c]pyridin-7-yl]-1,2,3,4-tetrahydroisoquinoline hydrochloride] returned a 50% inhibitory concentration (IC50) of 380 nM.

For `COc1ccc(Cn2c(C)c(C)c3cc(C(=O)N4CCN(C)CC4)nc(N4CCc5ccccc5C4)c32)cc1` [Example 829, [7-(3,4-dihydro-1H-isoquinolin-2-yl)-1-(4-methoxybenzyl)-2,3-dimethyl-1H-pyrrolo[2,3-c]pyridin-5-yl]-(4-methylpiperazin-1-yl)-methanone hydrochloride], the half-maximal inhibitory concentration (IC50) turned out to be 79 nM.

In the case of `CCn1c(C)c(C)c2ccnc(N3CCc4ccccc4C3)c21` [Example 481, 1-ethyl-7-(1,2,3,4-tetrahydroisoquinolin-2-yl)-2,3-dimethyl-1H-pyrrolo[2,3-c]pyridine hydrochloride], inhibition was half-maximal at 59 nM (IC50).

`CSc1ccc(-c2nccc3c(C)c(C)n(Cc4ccccc4F)c23)cc1` [Example 275, 2,3-dimethyl-1-(2-fluorobenzyl)-7-(4-methylsulfanylphenyl)-1H-pyrrolo[2,3-c]pyridine hydrochloride]: the midpoint of inhibition, the IC50, lay at 360 nM.

`COCCn1c(C)c(C)c2ccnc(-c3ccc(SC)cc3)c21` [Example 264, 1-(2-methoxyethyl)-2,3-dimethyl-7-(4-methylsulfanylphenyl)-1H-pyrrolo[2,3-c]pyridine hydrochloride] yielded a half-maximal inhibitory concentration (IC50) of 490 nM.

In turn, `CCCn1c(C)c(C)c2cc(C(=O)N3CCNCC3)nc(N3CCc4ccccc4C3)c21` [Example 813, [7-(3,4-dihydro-1H-isoquinolin-2-yl)-2,3-dimethyl-1-propyl-1H-pyrrolo[2,3-c]pyridin-5-yl]-(piperazin-1-yl)-methanone hydrochloride] returned an IC50 of 11 nM.

`Cc1c(C)n(Cc2cccc(Cl)c2)c2c(N3CCc4ccccc4C3)nc(C(=O)O)cc12` [Example 735, 1-(3-chlorobenzyl)-7-(3,4-dihydro-1H-isoquinolin-2-yl)-2,3-dimethyl-1H-pyrrolo[2,3-c]pyridin-5-carboxylic acid] came in with a half-maximal inhibitory concentration (IC50) of 54 nM.

For `Cc1ccc(Cn2c(C)c(C)c3ccnc(N(C)Cc4ccc(F)cc4)c32)cc1` [Example 152, 7-[N-(4-fluorobenzyl)-N-methyl]amino-2,3-dimethyl-1-(4-methylbenzyl)-1H-pyrrolo[2,3-c]pyridine hydrochloride], the IC50 is 170 nM.

Compound `Cc1c(C)n(Cc2cccc(F)c2)c2c(N3CCc4ccc(F)cc4C3C)nccc12` (stereo not shown) [Example 542, 7-fluoro-2-[1-(3-fluorobenzyl)-2,3-dimethyl-1H-pyrrolo[2,3-c]pyridin-7-yl]-1-methyl-1,2,3,4-tetrahydroisoquinoline hydrochloride] showed an IC50 of 150 nM.

`Cc1c(C)n(Cc2ccccc2)c2c(NCc3ccc(Cl)cc3)nccc12` [Example 215, 1-benzyl-7-(4-chlorobenzylamino)-2,3-dimethyl-1H-pyrrolo[2,3-c]pyridine hydrochloride] gave a half-inhibitory concentration (IC50) of 420 nM.

Consider `Cc1ccc(Cn2c(C)c(C)c3ccnc(COc4ccc(F)cc4)c32)cc1` [Example 5, 7-(4-fluorophenoxymethyl)-2,3-dimethyl-1-(4-methylbenzyl)-1H-pyrrolo[2,3-c]pyridine hydrochloride], for which the half-maximal inhibitory concentration (IC50) came to 450 nM.

Compound `CCn1c(C)c(C)c2ccnc(NCc3ccccc3C)c21` [Example 225, 1-ethyl-2,3-dimethyl-7-(2-methylbenzylamino)-1H-pyrrolo[2,3-c]pyridine hydrochloride] came in with a 50% inhibitory concentration (IC50) of 350 nM.

Compound `Cc1c(C)n(Cc2cccc(F)c2)c2c(N3CCc4ccccc4C3)nc(CNC3CC3)cc12` [Example 871, N-[7-(3,4-dihydro-1H-isoquinolin-2-yl)-1-(3-fluorobenzyl)-2,3-dimethyl-1H-pyrrolo[2,3-c]pyridin-5-ylmethyl]-cyclopropylamine hydrochloride] displayed an IC50 of 37 nM.

Take `Cc1c(C)n(Cc2ccccc2)c2c(NCc3ccc(F)cc3)nccc12` [Example 214, 1-benzyl-7-(4-fluorobenzylamino)-2,3-dimethyl-1H-pyrrolo[2,3-c]pyridine hydrochloride]: the IC50 worked out at 290 nM.

`COc1cccc(Cn2c(C)c(C)c3ccnc(COc4ccc(C)cc4C)c32)c1` [Example 68, 1-(3-methoxybenzyl)-2,3-dimethyl-7-(2,4-dimethylphenoxymethyl)-1H-pyrrolo[2,3-c]pyridine hydrochloride] had an IC50 of 212 nM.

`Cc1c(C)n(Cc2cccc(F)c2)c2c(N3CCc4ccccc4C3)nc(C(C)O)cc12` (stereo not shown) [Example 860, 1-[7-(3,4-dihydro-1H-isoquinolin-2-yl)-1-(3-fluorobenzyl)-2,3-dimethyl-1H-pyrrolo[2,3-c]pyridin-5-yl]-ethanol hydrochloride] yielded a concentration for half-maximal inhibition (IC50) of 313 nM.

Compound `Cc1c(C)n(CC2CC2)c2c(N(C)Cc3ccc(F)cc3)nccc12` [Example 144, 1-cyclopropylmethyl-7-[N-(4-fluorobenzyl)-N-methyl]amino-2,3-dimethyl-1H-pyrrolo[2,3-c]pyridine hydrochloride] returned an IC50 of 200 nM.

`Cc1c(C)n(Cc2ccccc2F)c2c(CN(C)c3ccc(F)cc3)nccc12` [Example 115, N-[1-(2-fluorobenzyl)-2,3-dimethyl-1H-pyrrolo[2,3-c]pyridin-7-ylmethyl]-N-(4-fluorophenyl)-methylamine hydrochloride] registered an IC50 of 142 nM.

Turning to `C=CCn1c(C)c(C)c2cc(C(=O)NCCO)nc(N3CCc4ccccc4C3)c21` [Example 837, 1-allyl-7-(3,4-dihydro-1H-isoquinolin-2-yl)-2,3-dimethyl-N-(2-hydroxyethyl)-1H-pyrrolo[2,3-c]pyridin-5-carboxamide hydrochloride], 29 nM corresponded to half-maximal inhibition (IC50).

`Cc1c(C)n(Cc2cccc(Cl)c2)c2c(N3CCc4ccccc4C3)nc(C(=O)N3CCCCC3)cc12` [Example 799, [1-(3-chlorobenzyl)-7-(3,4-dihydro-1H-isoquinolin-2-yl)-2,3-dimethyl-1H-pyrrolo[2,3-c]pyridin-5-yl]-(piperidin-1-yl)-methanone hydrochloride] registered an IC50 of 164 nM.

`C=CCn1c(C)c(C)c2ccnc(N3CCc4ccccc4C3)c21` [Example 491, 1-allyl-7-(1,2,3,4-tetrahydroisoquinolin-2-yl)-2,3-dimethyl-1H-pyrrolo[2,3-c]pyridine maleate] had an IC50 of 2 nM.

In turn, `Cc1c(C)n(Cc2cccc(F)c2)c2c(N3CCc4cc(F)ccc4C3C)nccc12` (stereo not shown) [Example 565, 6-fluoro-2-[1-(3-fluorobenzyl)-2,3-dimethyl-1H-pyrrolo[2,3-c]pyridin-7-yl]-1-methyl-1,2,3,4-tetrahydroisoquinoline hydrochloride] registered a half-maximal inhibitory concentration (IC50) of 330 nM.

As to `Cc1cccc(Cn2c(C)c(C)c3cc(C(=O)N4CCNCC4)nc(N4CCc5ccccc5C4)c32)c1` [Example 814, [7-(3,4-dihydro-1H-isoquinolin-2-yl)-2,3-dimethyl-1-(3-methylbenzyl)-1H-pyrrolo[2,3-c]pyridin-5-yl]-(piperazin-1-yl)-methanone hydrochloride], the IC50 was found to be 31 nM.

Consider `Cc1c(C)n(Cc2ccc(F)cc2)c2c(CN(C)c3ccc(F)cc3)nccc12` [Example 118, N-[1-(4-fluorobenzyl)-2,3-dimethyl-1H-pyrrolo[2,3-c]pyridin-7-ylmethyl]-N-(4-fluorophenyl)-methylamine hydrochloride], for which it took 332 nM to reach half-maximal inhibition (IC50).

In the case of `CCn1c(C)c(C)c2cc(C(=O)N3CCCC(O)C3)nc(N3CCc4ccccc4C3)c21` (stereo not shown) [Example 807, [7-(3,4-dihydro-1H-isoquinolin-2-yl)-1-ethyl-2,3-dimethyl-1H-pyrrolo[2,3-c]pyridin-5-yl]-(3-hydroxypiperidin-1-yl)-methanone hydrochloride], the half-inhibitory concentration (IC50) amounted to 23 nM.

`CCOCCn1c(C)c(C)c2ccnc(N3CCc4ccccc4C3)c21` [Example 503, 1-(2-ethoxyethyl)-7-(1,2,3,4-tetrahydroisoquinolin-2-yl)-2,3-dimethyl-1H-pyrrolo[2,3-c]pyridine hydrochloride] came in with a half-inhibitory concentration (IC50) of 160 nM.

Consider `Cc1c(C)n(Cc2ccccc2)c2c(N3CCc4ccccc4C3)nc(CO)cc12` [Example 850, [1-benzyl-7-(3,4-dihydro-1H-isoquinolin-2-yl)-2,3-dimethyl-1H-pyrrolo[2,3-c]pyridin-5-yl]-methanol hydrochloride], for which the IC50 came to 53 nM.

Values taken from US7662832B2, “Pyrrolo[2,3-c]pyridine derivatives and processes for the preparation thereof” (priority 2004, dated 2010).
